Data: article PMC4372254, “Unlocking the Diversity of Alkaloids in Catharanthus roseus: Nuclear Localization Suggests Metabolic Channeling in Secondary Metabolism” (Chemistry & Biology, 2015)

What was measured:
[1] = target: T1, THAS (tetrahydroalstonine synthase) (Catharanthus roseus, UniProt A0A0F6SD02); experiment: isothermal titration calorimetry; type: binding
T1 construct: His-tagged, vector pOPINF, expressed in E. coli Rosetta 2 pLysS, HisTrap purified
T1 sequence (A0A0F6SD02 1-356): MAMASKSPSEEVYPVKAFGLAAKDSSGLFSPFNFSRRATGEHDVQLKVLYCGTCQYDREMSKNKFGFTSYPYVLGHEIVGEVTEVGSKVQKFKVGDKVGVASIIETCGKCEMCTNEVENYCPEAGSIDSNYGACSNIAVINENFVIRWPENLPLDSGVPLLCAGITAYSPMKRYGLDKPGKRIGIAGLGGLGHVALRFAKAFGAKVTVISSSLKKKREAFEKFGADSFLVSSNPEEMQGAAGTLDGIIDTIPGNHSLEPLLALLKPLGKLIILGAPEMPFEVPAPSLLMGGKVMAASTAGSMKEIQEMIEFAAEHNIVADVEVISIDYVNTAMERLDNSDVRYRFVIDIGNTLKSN

[2] = target: T2, SGD (strictosidine glucosidase) (Catharanthus roseus, UniProt Q9M7N7); experiment: in situ deglycosylation, […] min incubation; type: biochemical; settings: strictosidine aglycone formed
T2 construct: recombinant, purified as THAS, expression system of Yerkes et al. 2008

| Kd [1] | Compound | in situ deglycosylation, 10 min incubation [2] |
| --- | --- | --- |
| 1500 ± 100 nM | NC(=O)C1=CN([C@@H]2O[C@H](COP(=O)(O)OP(=O)(O)OC[C@H]3O[C@@H](n4cnc5c(N)ncnc54)[C@H](OP(=O)(O)O)[C@@H]3O)[C@@H](O)[C@H]2O)C=CC1 [NADPH] |  |
|  | C=C[C@H]1[C@H](O[C@@H]2O[C@H](CO)[C@@H](O)[C@H](O)[C@H]2O)OC=C(C(=O)OC)[C@H]1C[C@@H]1NCCc2c1[nH]c1ccccc21 [strictosidine] | strictosidine was completely converted to the aglycone |
